Results published in US20240391889A1, “ANTIMICROBIAL COMPOUNDS AND THE METHODS OF USE” (priority 2021, published 2024).
≈ marks a conversion by molar mass, not a printed value. Read-outs that look alike come from different tables or passages of the source. Numbered stars: 1 amine (or outer) side, 2 acyl side, 3 side chain; on linkers, the order of the positions; unused ones are H or OH. Square brackets hold non-standard residues; d marks the D form. Peptide text beside a SMILES is read from it. N(tridecyl)Gly = CCCCCCCCCCCCCNCC(=O)O; X1 = CC(c1ccccc1)N(CC(=O)[*:2])[*:1]; NFurfurylGly = O=C(O)CNCc1ccco1; Gly(N(CH2)3NH2) = NCCCNCC(=O)O; Nphe = O=C(O)CNCc1ccccc1; NPrGly = CCCNCC(=O)O; Nlys = NCCCCNCC(=O)O

How the values were obtained:
C. albicans [1] = type: cell-based, Candida albicans
Description: One of the most serious crises facing both new and existing antimicrobial compounds is the rapid development of resistance by pathogens to that compound, rendering it useless. This has been an issue observed with all major commercially available antimicrobial drugs and is an increasingly prevalent issue with antifungal drugs (Clatworthy et al., Nat. Chem. Biol. 3, 541-548 (2007); Wiederhold et al., Infect. Drug Resist. 10, 249-259 (2017)). The ability of C. albicans to gain resistance against RMG9-11 was evaluated using two techniques; serial and single passage. Ching et al. described a method for single passage assessment of gain of resistance, which was used here with RMG9-11 (Ching et al., Sci. Rep. 10, 8754 (2020)). Briefly, a single colony of C. albicans was incubated overnight in RPMI-MOPS. Fungal cultures were then incubated for either 24 or 48 hours with concentrations of RMG9-11 ranging from 0 to 80% MIC. […] To further solidify this finding, C. albicans were introduced to increasing concentrations of RMG9-11 through a serial passage gain of resistance assay, as described by Samuelsen et al. (Samuelsen et al., FEBS Lett. 579, 3421-3426 (2005)). […] One main difference between serial and single passage assays is in the inoculation method from one passage to the next. The single passage relies on one individual colony while the serial passage focuses on a set concentration of fungi (cells/mL). At the end of serial passage, C. albicans that had been exposed to gradually increasing concentrations of RMG9-11 were used to prepare a traditional MIC assay. In theory, if fungi had evolved resistance during serial passage with sub-MIC antifungal agent, the MIC of RMG9-11 against these fungi should increase. […] To our knowledge, this is the first evaluation of the ability of a microbe to gain resistance to a peptoid, though it has long been hypothesized that gaining resistance to peptoids is unlikely.
A second gain of resistance through single passage was done for RMG9-11 against C. albicans following previously published methods as a confirmation of serial passage results (Ching et al., Sci. Rep. 10, 8754 (2020)). A single C. albicans colony was inoculated into RPMI-MOPS (pH 7; 5 mL) and incubated overnight (200 RPM; 37° C.). […] The following day, an MIC was performed with these cell solutions to evaluate gain of resistance after 48 hours. This assay was performed with four separate streaked plates from frozen stocks for biological replicate.

C. albicans M3 = type: cell-based, Candida albicans; conditions: fluconazole resistant strain
Description: (§1) This screening led to the discovery of RMG9-11 (FIG. 2C). The minimum inhibitory concentration (MIC) of resynthesized RMG9-11 was initially determined against C. albicans, C. neoformans, and the ESKAPE bacteria via CSLI guidelines (CLSI. Methods for Dilution Antimicrobial Susceptibility Tests for Bacteria That Grow Aerobically, 11th Edition. Clinical and Laboratory Standards Institute (2018); CLSI. Reference method for broth dilution antifungal susceptibility testing of yeasts; approved standard-third edition; CLSI document M27-A3. Clinical and Laboratory Standards Institute (2008)). […] C. albicans clinical isolates include a reference strain (M1), fluconazole susceptible strains (M4 and M6), and fluconazole resistant strains (M2, M3, M5, and M7). ATCC 64124 is multidrug resistant C. albicans strain that is resistant to amphotericin B, fluconazole, caspofungin, and flucytosine. All MICs were performed under CSLI guidelines in triplicate on at least three different days.
(§2) The minimum inhibitory concentration (MIC) of peptoids against fungal pathogens C. albicans and C. neoformans was determined following CLSI guidelines (Reference method for broth dilution antifungal susceptibility testing of yeasts; approved standard-third edition; CLSI document M27-A3.” CLSI. 2008.). Colonies were transferred from a streaked YPD plate to 0.85% saline to reach an OD530 between 0.18 and 0.25. This inoculant was diluted 1:100 into RPMI-MOPS and then further diluted 1:20 into RPMI-MOPS. 198 μL of inoculant was seeded into each well of a 96 well black-walled plate. 2-fold serial dilutions of 100× peptoid solutions were prepared in water and 2 μL of peptoid were added to each well in triplicate. […] MIC was defined as the lowest concentration of compound preventing fungal growth. This assay was repeated 3 times on separate days with each compound.

C. albicans M2 = type: cell-based, Candida albicans; conditions: fluconazole resistant strain
Description: as §1, §2

[2] = tested on: fluconazole resistant and susceptible strains of C. albicans; type: cell-based, Candida albicans; conditions: regardless of fluconazole susceptibility
Description: as §1, §2

C. albicans ATCC 64124 = type: cell-based, Candida albicans; conditions: resistant to amphotericin B, fluconazole, caspofungin, flucytosine
Description: as §1, §2

C. albicans M5 = type: cell-based, Candida albicans; conditions: fluconazole resistant strain
Description: as §1, §2

C. albicans M1 = type: cell-based, Candida albicans; conditions: reference strain
Description: as §1, §2

C. albicans M6 = type: cell-based, Candida albicans; conditions: fluconazole susceptible strain
Description: as §1, §2

C. albicans M4 = type: cell-based, Candida albicans; conditions: fluconazole susceptible strain
Description: as §1, §2

C. albicans M7 = type: cell-based, Candida albicans; conditions: fluconazole resistant strain
Description: as §1, §2

C. albicans [3] = type: cell-based, Candida albicans; conditions: planktonic, 24 h, RPMI-MOPS
Description: as §1, §2

C. parapsilosis = type: cell-based, Candida parapsilosis
C. neoformans = type: cell-based, Cryptococcus neoformans
Description: as §1, §2

CCCCCCCCCCCCCNCC(=O)N(CCC)CC(=O)N(CC(=O)N(CCCCN)CC(=O)N(CC(=O)N(CC(=O)N(CCCN)CC(N)=O)Cc1ccccc1)Cc1ccco1)C(C)c1ccccc1 (centres unmarked) [RMG9-11] (H-[N(tridecyl)Gly][NPrGly][X1][Nlys][NFurfurylGly][Nphe][Gly(N(CH2)3NH2)]-NH2)
Single Passage 24 h MIC (C. albicans [1]; C. albicans pre-exposed 24 h to 0% MIC RMG9-11): 6.25 µg/mL | Single Passage 24 h MIC (C. albicans [1]; pre-exposed 24 h to 10% MIC): 6.25 µg/mL | Single Passage 24 h MIC (C. albicans [1]; pre-exposed 24 h to 20% MIC): 6.25 µg/mL | Single Passage 24 h MIC (C. albicans [1]; pre-exposed 24 h to 40% MIC): 6.25 µg/mL | Single Passage 24 h MIC (C. albicans [1]; pre-exposed 24 h to 60% MIC): 6.25 µg/mL | Single Passage 24 h MIC (C. albicans [1]; pre-exposed 24 h to 80% MIC): 6.25 µg/mL | Single Passage 48 h MIC (C. albicans [1]; pre-exposed 48 h to 0% MIC): 6.25 µg/mL | Single Passage 48 h MIC (C. albicans [1]; pre-exposed 48 h to 10% MIC): 6.25 µg/mL | Single Passage 48 h MIC (C. albicans [1]; pre-exposed 48 h to 20% MIC): 6.25 µg/mL | Single Passage 48 h MIC (C. albicans [1]; pre-exposed 48 h to 40% MIC): 6.25 µg/mL | Single Passage 48 h MIC (C. albicans [1]; pre-exposed 48 h to 60% MIC): 6.25 µg/mL | Single Passage 48 h MIC (C. albicans [1]; pre-exposed 48 h to 80% MIC): 6.25 µg/mL | ability of C. albicans to develop resistance (C. albicans [1]; single passage, in words): unable to develop resistance | MIC C. albicans M3 (C. albicans M3): 12.5 µg/mL (≈ 12 µM) | MIC C. albicans M2 (C. albicans M2): 12.5 µg/mL (≈ 12 µM) | MICs against fluconazole resistant and susceptible strains of C. albicans [2]: 6.25 to 12.5 µg/mL | MIC C. albicans ATCC 64124 (C. albicans ATCC 64124): 6.25 µg/mL (≈ 5.99 µM) | MIC C. albicans M5 (C. albicans M5): 12.5 µg/mL (≈ 12 µM) | MIC C. albicans M1 (C. albicans M1): 6.25 µg/mL (≈ 5.99 µM) | MIC C. albicans M6 (C. albicans M6): 6.25 µg/mL (≈ 5.99 µM) | MIC C. albicans M4 (C. albicans M4): 12.5 µg/mL (≈ 12 µM) | MIC C. albicans M7 (C. albicans M7): 6.25 µg/mL (≈ 5.99 µM) | MIC C. albicans (C. albicans [3]): 6.25 µg/mL (≈ 5.99 µM) | MIC C. parapsilosis (C. parapsilosis): 6.25 µg/mL (≈ 5.99 µM) | improvement of MIC C. neoformans vs C. albicans (C. neoformans): 2 fold | MIC C. neoformans (C. neoformans; 72 h): 3.13 µg/mL (≈ 3 µM)
